Converted amounts (≈) assume the structure as drawn.
What was measured:
[1] = target: T1, WT N. gonorrhoeae gyrase (Neisseria gonorrhoeae, UniProt P48371); experiment: Gyrase-catalyzed DNA supercoiling assay, WT; format: biochemical; settings: relaxed pBR322, 1.5 mM ATP, read-out: IC50, inhibition of DNA supercoiling
T1 construct: His; made in house
Method: All proteins were His-tagged. N. gonorrhoeae WT gyrase (GyrA, GyrB) and topoisomerase IV (ParC, ParE) subunits as well as mutant GyrA^D90N, GyrA^A92T, GyrA^S91F, and GyrA^S91F/D95G gyrase and ParC^D86N and ParC^S88P topoisomerase IV were prepared as described previously. , N. gonorrhoeae mutant GyrA^D95G gyrase and mutant ParC^S87N and ParC^E91G topoisomerase IV were generated using a QuickChange II XL site-directed mutagenesis kit (Agilent Technologies) with custom primers for the desired mutations. […] The identities of all constructs were confirmed by DNA sequencing, and all enzymes were stored at −80 °C. In all assays, N. gonorrhoeae gyrase or topoisomerase IV was used as a 1:1 GyrA:GyrB or ParC:ParE mixture, respectively, and the stated enzyme concentration reflects that of the holoenzyme (A2B2).
Samples were mixed with 2 μL of loading dye [60% sucrose, 10 mM Tris–HCl (pH 7.9), 0.5% bromophenol blue, and 0.5% xylene cyanol FF] and incubated at 45 °C for 2 min before being subjected to electrophoresis on 1% agarose gels in 100 mM Tris-borate (pH 8.3) and 2 mM EDTA. […] DNA bands were visualized with medium-range ultraviolet light and quantified using an Alpha Innotech digital imaging system (Protein Simple). DNA supercoiling was monitored by the conversion of relaxed to supercoiled plasmid.

[2] = test system: N. gonorrhoeae FA1090E (GyrA^WT/ParC^WT, efflux mutant); experiment: MIC by agar dilution, WT/WT efflux-mutant parental strain; format: cell-based; settings: Neisseria gonorrhoeae, 48 h
Method: Mutations in these efflux genes can result in increased efflux to multiple antibiotics. […] Parental and isogenic mutant strains generated that carried the efflux mutations mtrR-79 and norM ΔT T6 were designated as FA1090E (E for efflux positive). Only the additional GyrA and ParC genotypes are described in Table and in the text. The mutant that additionally expressed ParC^D86N was named FA1090E-2.
(§1) Minimum inhibitory concentration (MIC) of test compounds was determined by an agar dilution method, the reference testing method for N. gonorrhoeae according to the standards of the Clinical and Laboratory Standards Institute and the CDC.

[3] = target: T2, N. gonorrhoeae topoisomerase IV ParC^D86N (Neisseria gonorrhoeae, UniProt P48374, D86N); experiment: Topoisomerase IV-catalyzed DNA decatenation assay, ParC^D86N; format: biochemical
T2 construct: His; made in house
T2 sequence (P48374 1-768 D86N): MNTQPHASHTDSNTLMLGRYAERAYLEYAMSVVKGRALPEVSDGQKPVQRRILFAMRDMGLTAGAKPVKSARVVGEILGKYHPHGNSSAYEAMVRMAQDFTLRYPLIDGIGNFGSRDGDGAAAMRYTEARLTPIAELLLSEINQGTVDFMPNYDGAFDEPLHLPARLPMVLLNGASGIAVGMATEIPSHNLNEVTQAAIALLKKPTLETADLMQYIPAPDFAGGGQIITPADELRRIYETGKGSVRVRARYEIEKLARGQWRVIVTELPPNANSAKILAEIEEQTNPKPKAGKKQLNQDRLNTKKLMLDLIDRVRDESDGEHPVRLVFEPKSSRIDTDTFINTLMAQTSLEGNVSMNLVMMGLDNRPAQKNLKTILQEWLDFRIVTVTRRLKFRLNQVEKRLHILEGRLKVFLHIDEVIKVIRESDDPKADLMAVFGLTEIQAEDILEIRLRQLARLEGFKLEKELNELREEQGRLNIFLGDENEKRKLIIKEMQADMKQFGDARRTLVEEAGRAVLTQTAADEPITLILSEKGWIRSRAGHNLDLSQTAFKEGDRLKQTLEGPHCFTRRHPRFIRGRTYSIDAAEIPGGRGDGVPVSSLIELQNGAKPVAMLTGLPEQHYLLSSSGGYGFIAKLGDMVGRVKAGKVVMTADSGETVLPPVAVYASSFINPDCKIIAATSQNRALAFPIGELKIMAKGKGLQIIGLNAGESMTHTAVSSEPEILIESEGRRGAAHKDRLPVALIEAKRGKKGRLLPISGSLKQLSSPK
Method: All proteins were His-tagged. N. gonorrhoeae WT gyrase (GyrA, GyrB) and topoisomerase IV (ParC, ParE) subunits as well as mutant GyrA^D90N, GyrA^A92T, GyrA^S91F, and GyrA^S91F/D95G gyrase and ParC^D86N and ParC^S88P topoisomerase IV were prepared as described previously. , N. gonorrhoeae mutant GyrA^D95G gyrase and mutant ParC^S87N and ParC^E91G topoisomerase IV were generated using a QuickChange II XL site-directed mutagenesis kit (Agilent Technologies) with custom primers for the desired mutations. Mutant N. gonorrhoeae GyrA and ParC subunits were expressed and purified as described by Ashley et al. with the following modifications to optimize protein expression and lysis: (1) GyrA^D95G was expressed for 2.5 h and ParC^S87N and ParC^E91G were expressed for 3 h before harvesting, and (2) cells were lysed by sonication using a digital sonifier (Branson). The identities of all constructs were confirmed by DNA sequencing, and all enzymes were stored at −80 °C. In all assays, N. gonorrhoeae gyrase or topoisomerase IV was used as a 1:1 GyrA:GyrB or ParC:ParE mixture, respectively, and the stated enzyme concentration reflects that of the holoenzyme (A2B2). […]

[4] = test system: N. gonorrhoeae FA1090E-3 (GyrA^A92T/ParC^D86N); experiment: MIC by agar dilution, GyrA^A92T/ParC^D86N strain; format: cell-based, Neisseria gonorrhoeae
Method: This strain was designated FA1090E-3 (GyrA^A92T/ParC^D86N).
as §1

T1 sequence (P48371 whole entry): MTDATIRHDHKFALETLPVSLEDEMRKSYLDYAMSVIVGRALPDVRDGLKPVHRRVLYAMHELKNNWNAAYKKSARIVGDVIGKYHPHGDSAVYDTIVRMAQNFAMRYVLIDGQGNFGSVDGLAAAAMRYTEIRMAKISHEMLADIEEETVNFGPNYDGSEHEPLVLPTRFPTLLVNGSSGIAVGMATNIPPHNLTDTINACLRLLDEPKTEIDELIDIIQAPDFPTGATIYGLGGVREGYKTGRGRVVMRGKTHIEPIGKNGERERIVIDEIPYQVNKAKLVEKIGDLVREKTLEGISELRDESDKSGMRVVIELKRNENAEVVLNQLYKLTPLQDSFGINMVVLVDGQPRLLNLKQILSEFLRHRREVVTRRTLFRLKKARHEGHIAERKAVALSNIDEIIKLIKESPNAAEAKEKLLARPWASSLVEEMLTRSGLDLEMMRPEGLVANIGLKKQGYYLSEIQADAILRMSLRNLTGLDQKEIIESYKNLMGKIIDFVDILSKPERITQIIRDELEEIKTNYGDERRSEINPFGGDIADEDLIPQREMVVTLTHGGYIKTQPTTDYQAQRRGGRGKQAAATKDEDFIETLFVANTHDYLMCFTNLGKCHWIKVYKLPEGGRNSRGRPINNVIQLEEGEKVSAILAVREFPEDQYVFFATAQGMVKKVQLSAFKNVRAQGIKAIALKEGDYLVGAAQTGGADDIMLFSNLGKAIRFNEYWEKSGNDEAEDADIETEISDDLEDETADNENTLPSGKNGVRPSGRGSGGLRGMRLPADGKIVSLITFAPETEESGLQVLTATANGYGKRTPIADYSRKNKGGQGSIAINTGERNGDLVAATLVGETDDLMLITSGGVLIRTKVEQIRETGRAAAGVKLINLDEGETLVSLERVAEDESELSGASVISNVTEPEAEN
T1 sequence (P22118 whole entry partner): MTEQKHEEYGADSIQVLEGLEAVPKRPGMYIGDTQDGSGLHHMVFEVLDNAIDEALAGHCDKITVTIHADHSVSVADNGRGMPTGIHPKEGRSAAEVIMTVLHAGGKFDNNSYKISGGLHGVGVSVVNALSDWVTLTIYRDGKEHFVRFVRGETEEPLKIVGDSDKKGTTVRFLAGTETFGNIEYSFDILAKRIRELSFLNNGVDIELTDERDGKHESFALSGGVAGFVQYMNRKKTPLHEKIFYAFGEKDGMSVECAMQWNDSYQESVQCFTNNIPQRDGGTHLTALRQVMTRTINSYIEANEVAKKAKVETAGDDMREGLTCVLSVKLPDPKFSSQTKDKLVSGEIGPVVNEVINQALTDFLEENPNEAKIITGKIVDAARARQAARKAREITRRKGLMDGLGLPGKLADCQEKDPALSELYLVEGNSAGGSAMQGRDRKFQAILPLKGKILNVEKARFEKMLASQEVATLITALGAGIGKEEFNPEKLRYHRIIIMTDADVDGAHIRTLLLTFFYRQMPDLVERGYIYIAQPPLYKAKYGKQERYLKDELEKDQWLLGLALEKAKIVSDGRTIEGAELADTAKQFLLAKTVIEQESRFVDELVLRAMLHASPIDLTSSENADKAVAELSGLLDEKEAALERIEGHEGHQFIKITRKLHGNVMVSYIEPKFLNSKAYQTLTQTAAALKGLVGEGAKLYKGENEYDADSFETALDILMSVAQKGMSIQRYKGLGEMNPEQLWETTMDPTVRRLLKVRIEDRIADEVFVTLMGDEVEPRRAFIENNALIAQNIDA

For O=c1ccc2ncc(=O)n3c2n1C[C@H]3CN1CCC(NCc2cc3c(cn2)OCCC3)CC1 [gepotidacin], which IC50 [1] is on record?
The IC50 was 5.1 ± 2.3 µM.

What about the MIC [2] of the same compound?
Its MIC is 0.5 µg/mL (≈ 1.11 µM).

And the IC50 ([3]; ParC D86N topoisomerase IV, read-out: IC50, inhibition of DNA decatenation)?
The IC50 was over 200 µM.

And the “inhibition of DNA decatenation” value ([3]; ParC D86N, gepotidacin concentrations as high as 200 μM)?
Its value is “no inhibition”.

What about the MIC ([4]; Neisseria gonorrhoeae) of the same compound?
The MIC was 8 µg/mL (≈ 17.8 µM).

What about the “fold-change in MIC from WT/WT parental strain” value ([4]; strain FA1090E-3 vs FA1090E) of the same compound?
Its value is 16 fold.
